In patent US20260159525A1, “TRICYCLIC HETEROCYCLES” (Merck Patent GmbH, priority 2021, published 2026) one finds IC50 data, which are given here for 24 compounds.

Some results are limits rather than exact numbers.

The test relates to YAP-TEAD interaction. As to the kind of experiment: SK-HEP-1 reporter assay (8x TEAD responsive elements driving NanoLuc luciferase). Format: cell-based. As to conditions: Homo sapiens, SK-HEP1, SK-HEP-1 cells, 24 hour incubation. How it is done: To identify inhibitors of YAP-TEAD interaction, 8× TEAD responsive elements driving the NanoLuc® luciferase gene were stably integrated into SK-HEP-1 cells (ECACC #: 91091816).
For the assay, cells were treated in duplicates with the test compounds in a 10-point dose, with the top concentration starting at 30 μM (final concentration in assay). After a 24 hour incubation at 37° C., 95% rH, and 5% CO2, a luciferase substrate/lysis reagent mix (NanoGlo™, Promega) was added to the cells, allowing the quantification of cellular luciferase activity.
Cell Media: The cells were cultured in the following media: MEM, +10% FBS, +1× GlutaMAX, +1 mM Sodium-Pyruvate, +100 μM Non-essential amino acids, +0.1 mg/ml Hygromycin. The media used for the assay was: MEM (w/o Phenol Red), +10% FBS, +1× GlutaMAX, +1 mM Sodium-Pyruvate, +100 μM Non-essential amino acids, +0.5% Pen/Strep
Reagents: The reagents used are listed below:
Cell culture: The cells were examined using an inverted microscope to check for health and cell density. To dissociate adherent cells, the monolayer of cells was washed once with pre-warmed PBS. After removing the PBS, 3 ml pre-warmed Accutase® was added to a F75 flask, dispersed evenly and the flask was allowed to sit in incubator for ˜4-5 minutes.
When a single cell suspension was obtained, 7 ml of prewarmed growth media was added and resuspended with the cells. The cell suspension was transferred to a sterile 15 ml conical centrifuge tube, and spun for 5 min at 300×g, RT. The supernatant was discarded and the pellet was resuspended in 10 ml of pre-warmed growth media.
The total cell count was determined, and 20 μl of the desired cell number was added to each well of a 384 well plate using a Multidrop Combi. The plates were then incubated for 24 hours at 37° C., 95% rH, and 5% CO2.
Compound treatment: 24 hours after seeding, the cells were treated with compounds.
A 1:333 dilution of compounds, diluted in DMSO, was made to get a final concentration of 0.3% DMSO per well. To transfer the compounds to the assay plate, 120 nl was shot from Labcyte low dead volume plates to the cell plates containing 20 μl media/well with the ECHO 555 liquid handling system. After treatment, the cells were fed with 20 μl fresh pre-warmed assay media using a Multidrop combi.
The assay plates were then incubated for another 24 h at 37° C., 95% rH, and 5% CO2.
Luciferase readout: 24 h after treatment, the plates were taken out of the incubator and were allowed to equilibrate to RT. 30 μl of NanoGlo® reagent was added to the plates in the dark. Plates were shaken for 20 min on a Teleshake (˜1500 rpm) in the dark. The luminescence was then measured using an EnVision microplate reader. The IC50 values were generated using Genedata Screener®.

The mark [1] stands for this setting: number, or n.d. (x) = not detectable below threshold x.

As to `Cn1cc2c3sc(C(=O)NC4CC4)cc3n(-c3ccc(C(F)(F)F)cc3)c2n1` [compound 12], the IC50 (usually the concentration that inhibits the measured activity by half) (group symbols) was above 10 µM.
As for `Cn1cc2c3cc(C(=O)NC(CO)C4CCC4)sc3n(-c3ccc(C(F)(F)F)cc3)c2n1` (racemic) [Compound 57, N-(1-cyclobutyl-2-hydroxyethyl)-4-methyl-7-[4-(trifluoromethyl)phenyl]-9-thia-4,5,7-triazatricyclo[6.3.0.0^2,6]undeca-1(8),2,5,10-tetraene-10-carboxamide], under setting [1], the IC50 was above 9.5 µM.
On the same count and under the same terms, to `Cn1ccc(C(CO)NC(=O)c2cc3c4cn(C)nc4n(-c4ccc(C(F)(F)F)cn4)c3s2)n1` (stereo not drawn) [Compound 116, N-[2-hydroxy-1-(1-methyl-1H-pyrazol-3-yl)ethyl]-4-methyl-7-[5-(trifluoromethyl)pyridin-2-yl]-9-thia-4,5,7-triazatricyclo[6.3.0.0^2,6]undeca-1(8),2,5,10-tetraene-10-carboxamide] belongs above 30 µM.
Turning to `Cn1nc2c3sc(C(N)=O)cc3n(-c3ccc(C(F)(F)F)cc3)c2n1` [Compound 28, 4-methyl-7-[4-(trifluoromethyl)phenyl]-11-thia-3,4,5,7-tetraazatricyclo[6.3.0.0^2,6]undeca-1(8),2,5,9-tetraene-10-carboxamide], the IC50 (group symbols) is above 10 µM.
Same read-out and setting: to `C[C@H](CO)NC(=O)c1cc2c3cn(C)nc3n(-c3ccc(C(F)F)cc3)c2s1` [Compound 107, 7-[4-(difluoromethyl)phenyl]-N-[(2R)-1-hydroxypropan-2-yl]-4-methyl-9-thia-4,5,7-triazatricyclo[6.3.0.0^2,6]undeca-1(8),2,5,10-tetraene-10-carboxamide] belongs 0.1 to 10 µM.
In turn, `C[C@H](CO)NC(=O)c1cc2c3cn(C)nc3n(-c3ccc(C(F)F)cn3)c2s1` [Compound 132, 7-[5-(difluoromethyl)pyridin-2-yl]-N-[(2R)-1-hydroxypropan-2-yl]-4-methyl-9-thia-4,5,7-triazatricyclo[6.3.0.0^2,6]undeca-1(8),2,5,10-tetraene-10-carboxamide] gave an IC50 under setting [1] above 0.3 µM.
On the same count and under the same terms, to `CC[C@H](CO)NC(=O)c1cc2c3cn(C)nc3n(-c3ccc(C(F)(F)F)cn3)c2s1` [Compound 114, N-[(2R)-1-hydroxybutan-2-yl]-4-methyl-7-[5-(trifluoromethyl)pyridin-2-yl]-9-thia-4,5,7-triazatricyclo[6.3.0.0^2,6]undeca-1(8),2,5,10-tetraene-10-carboxamide] belongs above 3 µM; to `CC(=O)NCCOCCOCCNC(=O)c1cc2c3cn(C)nc3n(-c3ccc(C(F)(F)F)cc3)c2s1` [Compound 73, N-(2-{2-[2-({4-methyl-7-[4-(trifluoromethyl)phenyl]-9-thia-4,5,7-triazatricyclo[6.3.0.0^2,6]undeca-1(8),2,5,10-tetraen-10-yl}formamido)ethoxy]ethoxy}ethyl)acetamide], above 3 µM.
On to `Cn1cc2c3cc(C(=O)O)sc3n(-c3ccc(S(F)(F)(F)(F)F)cc3)c2n1` [Compound 98, 4-methyl-7-[4-(pentafluoro-lambda6-sulfanyl)phenyl]-9-thia-4,5,7-triazatricyclo[6.3.0.0^2,6]undeca-1(8),2,5,10-tetraene-10-carboxylic acid], for which the IC50 (group symbols) was in the range of 0.1 to 10 µM.
`Cn1cc2c3cc(C(=O)N[C@H](CO)C4CCC4)sc3n(-c3ccc(C(F)(F)F)cc3)c2n1` (single isomer, unassigned) [Compound 56] gave a concentration for half-maximal inhibition (IC50) under setting [1] above 9.5 µM.
Turning to `Cn1nc2c3sc(C(N)=O)cc3n(-c3ccc(OC(F)(F)F)cc3)c2n1` [Compound 38, 4-methyl-7-[4-(trifluoromethoxy)phenyl]-11-thia-3,4,5,7-tetraazatricyclo[6.3.0.0^2,6]undeca-1(8),2,5,9-tetraene-10-carboxamide], the IC50 (group symbols) was in the range of 0.1 to 10 µM.
On the same count and under the same terms, to `Cn1nc2c3sc(C(=O)N4CCC(O)C4)cc3n(-c3ccc(C(F)(F)F)cc3)c2n1` (stereo not drawn) [Compound 9, 1-{4-methyl-7-[4-(trifluoromethyl)phenyl]-11-thia-3,4,5,7-tetraazatricyclo[6.3.0.0^2,6]undeca-1(8),2,5,9-tetraene-10-carbonyl}pyrrolidin-3-ol] belongs 0.1 to 10 µM.
The same measure, in the same setting: to `Cn1cc2c3sc(C(=O)N[C@@H](CO)c4ccccn4)cc3n(-c3ccc(C(F)(F)F)cc3)c2n1` [Compound 14, N-[(1R)-2-hydroxy-1-(pyridin-2-yl)ethyl]-10-methyl-7-[4-(trifluoromethyl)phenyl]-3-thia-7,9,10-triazatricyclo[6.3.0.0^2,6]undeca-1(11),2(6),4,8-tetraene-4-carboxamide] belongs above 10 µM; to `CNC(=O)c1cc2c(s1)c1nc(C)sc1n2-c1ccc(OC(F)(F)F)cc1` [Compound 26, N,4-dimethyl-7-[4-(trifluoromethoxy)phenyl]-5,11-dithia-3,7-diazatricyclo[6.3.0.0^2,6]undeca-1(8),2(6),3,9-tetraene-10-carboxamide], 0.1 to 10 µM; to `Cn1nc2c3cc(C(=O)N4CC[C@H](O)C4)sc3n(-c3ccc(C(F)(F)F)cc3)c2n1` [Compound 103, (3S)-1-{4-methyl-7-[4-(trifluoromethyl)phenyl]-9-thia-3,4,5,7-tetraazatricyclo[6.3.0.0^2,6]undeca-1(8),2,5,10-tetraene-10-carbonyl}pyrrolidin-3-ol], 0.1 to 10 µM.
`Cn1cc2c3cc(C(=O)N[C@@H](CO)c4ccccn4)sc3n(-c3ccc(C(F)(F)F)cn3)c2n1` [Compound 113, N-[(1R)-2-hydroxy-1-(pyridin-2-yl)ethyl]-4-methyl-7-[5-(trifluoromethyl)pyridin-2-yl]-9-thia-4,5,7-triazatricyclo[6.3.0.0^2,6]undeca-1(8),2,5,10-tetraene-10-carboxamide] came in with a half-maximal inhibitory concentration (IC50) under setting [1] above 9.5 µM.
On the same count and under the same terms, to `Cn1cc2c3cc(C(=O)NC[C@H](O)CO)sc3n(-c3ccc(C(F)(F)F)cc3)c2n1` (single isomer, unassigned) [Compound 129] belongs above 0.95 µM; to `Cn1cc2c3cc(C(=O)NCC(O)CO)sc3n(-c3ccc(C(F)(F)F)cn3)c2n1` (stereo not drawn) [Compound 115, N-(2,3-dihydroxypropyl)-4-methyl-7-[5-(trifluoromethyl)pyridin-2-yl]-9-thia-4,5,7-triazatricyclo[6.3.0.0^2,6]undeca-1(8),2,5,10-tetraene-10-carboxamide], above 0.3 µM; to `Cn1cc2c3cc(C(=O)N[C@@H](CO)C4CCC4)sc3n(-c3ccc(C(F)(F)F)cc3)c2n1` (single isomer, unassigned) [Compound 55], above 9.5 µM.
As to `Cn1cc2c3sc(C(=O)NCCO)cc3n(-c3ccc(C(F)(F)F)cc3)c2n1` [Compound 13, N-(2-hydroxyethyl)-10-methyl-7-[4-(trifluoromethyl)phenyl]-3-thia-7,9,10-triazatricyclo[6.3.0.0^2,6]undeca-1(11),2(6),4,8-tetraene-4-carboxamide], the 50% inhibitory concentration (IC50) (group symbols) is above 10 µM.
`CNC(=O)c1cc2c3cn(C)nc3n(-c3ccc(SC(F)(F)F)cc3)c2s1` [Compound 85, N,4-dimethyl-7-{4-[(trifluoromethyl)sulfanyl]phenyl}-9-thia-4,5,7-triazatricyclo[6.3.0.0^2,6]undeca-1(8),2,5,10-tetraene-10-carboxamide]: the 50% inhibitory concentration (IC50) (group symbols) lay within 0.01 to 0.1 µM.
Still for that read-out and setting: to `Cn1nc2c3cc(C(=O)N[C@H](CO)c4ccccn4)sc3n(-c3ccc(C(F)(F)F)cc3)c2n1` [Compound 109, N-[(1S)-2-hydroxy-1-(pyridin-2-yl)ethyl]-4-methyl-7-[4-(trifluoromethyl)phenyl]-9-thia-3,4,5,7-tetraazatricyclo[6.3.0.0^2,6]undeca-1(8),2,5,10-tetraene-10-carboxamide] belongs 0.1 to 10 µM; to `Cn1cc2c3cc(C(=O)O)sc3n(-c3ccc(C(F)(F)F)nc3)c2n1` [Compound 81, 4-methyl-7-[6-(trifluoromethyl)pyridin-3-yl]-9-thia-4,5,7-triazatricyclo[6.3.0.0^2,6]undeca-1(8),2,5,10-tetraene-10-carboxylic acid], 0.01 to 0.1 µM.
Same read-out and setting: to `CC[C@H](O)CNC(=O)c1cc2c3cn(C)nc3n(-c3ccc(C(F)(F)F)cc3)c2s1` [Compound 83, N-[(2S)-2-hydroxybutyl]-4-methyl-7-[4-(trifluoromethyl)phenyl]-9-thia-4,5,7-triazatricyclo[6.3.0.0^2,6]undeca-1(8),2,5,10-tetraene-10-carboxamide] belongs 0.1 to 10 µM.
